Earlier results on 1 molecule are cited in patent US9617270B2, “Cytotoxic benzodiazepine derivatives” (priority 2012, dated 2017).

For the data set the following is noted: Phase I clinical evaluation.

With `C=C1C[C@H]2C=Nc3cc(OCCCOc4cc5c(cc4OC)C(=O)N4CC(=C)C[C@H]4C=N5)c(OC)cc3C(=O)N2C1` [SJG-136], the adverse effects noted entry is “vascular leak syndrome, peripheral edema, liver toxicity and fatigue”; the maximum tolerated dose is recorded as 45 μg/m^2. Further, under “circulating lymphocytes”, the “DNA damage in circulating lymphocytes” value is “noted at all doses”.
